Here are results for one compound from patent publication US7977363B2, “Biphenyl-thiazolo-carboxamides” (Bayer Cropscience AG, priority 2004, dated 2011).

The test relates to Alternaria solani. The experiment in a line: Alternaria Test (Tomato)/Protective. Type of test: in vivo. The following applies: protective, 750 g/ha, evaluated 7 days after inoculation. The protocol: [table] To produce a suitable preparation of active compound, 1 part by weight of active compound is mixed with the stated amounts of solvent and emulsifier, and the concentrate is diluted with water to the desired concentration. In order to test the protective activity, young tomato plants are sprayed with the active compound preparation at the stated application rate. One day after treatment, the plants are inoculated with a spore suspension of Alternaria solani and then remain for 24 hours at 100% relative humidity and 20° C. The plants are then placed into in environment of 96% relative humidity at a temperature of 20° C. The results are evaluated 7 days after the inoculation. An efficacy of 0% corresponds to that of the control, while an efficacy of 100% means that no infestation is observed.

The compound `Cc1nc(C(F)F)c(C(=O)Nc2c(F)cccc2-c2ccc(Cl)c(F)c2)s1` [drawing 80] displayed an Efficacy in % of 100%.
